The values below come from patent US20080269213A1, “8-Hydroxyquinoline compounds and methods thereof” (Wyeth, priority 2006, published 2008).

In one assay the target is T1, Agg-1 (Homo sapiens, UniProt O75173).
T1 sequence (O75173 213-837): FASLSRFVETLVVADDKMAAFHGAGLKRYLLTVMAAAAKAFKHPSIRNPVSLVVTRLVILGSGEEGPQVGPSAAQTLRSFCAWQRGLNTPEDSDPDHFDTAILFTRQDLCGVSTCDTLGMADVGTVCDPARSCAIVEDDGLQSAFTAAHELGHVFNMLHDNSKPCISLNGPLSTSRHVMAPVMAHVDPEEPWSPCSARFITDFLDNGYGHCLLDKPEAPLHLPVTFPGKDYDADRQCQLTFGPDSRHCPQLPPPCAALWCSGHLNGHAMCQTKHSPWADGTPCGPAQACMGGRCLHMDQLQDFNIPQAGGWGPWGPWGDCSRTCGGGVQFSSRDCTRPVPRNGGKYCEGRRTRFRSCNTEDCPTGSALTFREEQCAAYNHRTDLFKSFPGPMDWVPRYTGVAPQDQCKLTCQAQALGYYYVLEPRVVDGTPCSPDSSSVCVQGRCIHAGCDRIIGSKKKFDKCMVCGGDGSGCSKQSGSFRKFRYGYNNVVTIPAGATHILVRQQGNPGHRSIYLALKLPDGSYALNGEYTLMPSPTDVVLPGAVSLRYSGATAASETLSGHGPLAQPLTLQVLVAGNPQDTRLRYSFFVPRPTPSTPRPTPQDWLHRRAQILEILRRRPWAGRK
As to the kind of experiment: Agg-1 FRET assay. Type of assay: biochemical. The conditions noted are these: for inhibition at 22.2 µM: @ 22200 nM; for inhibition at 7.4 µM: @ 7400 nM; for inhibition at 22 µM: @ 22000 nM. From the text:
The Agg-1/Agg-2 FRET data for N-[(8-hydroxyquinolin-2-yl)(phenyl)methyl]-2-phenoxyacetamide and 2-{[(phenoxyacetyl)amino](phenyl)methyl}quinolin-8-yl phenoxyacetate is presented in Table 1.

Assay [1] has as its target T2, recombinant human Aggrecanase-2 Agg2-Phe628 (Homo sapiens, UniProt Q9UNA0).
T2 sequence (Q9UNA0 262-628 limits assumed): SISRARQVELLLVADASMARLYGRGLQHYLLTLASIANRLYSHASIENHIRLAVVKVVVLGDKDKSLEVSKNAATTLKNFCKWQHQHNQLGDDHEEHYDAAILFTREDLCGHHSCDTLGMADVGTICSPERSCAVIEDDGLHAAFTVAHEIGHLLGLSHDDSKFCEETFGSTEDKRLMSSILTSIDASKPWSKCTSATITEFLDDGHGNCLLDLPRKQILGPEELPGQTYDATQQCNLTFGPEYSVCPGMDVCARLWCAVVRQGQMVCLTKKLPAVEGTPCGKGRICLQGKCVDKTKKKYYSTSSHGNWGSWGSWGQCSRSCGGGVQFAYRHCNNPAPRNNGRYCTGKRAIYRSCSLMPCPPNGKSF
Briefly: Aggrecanase 2 in vitro enzyme assay (Agg-2 FRET, quenched fluorescent peptide substrate). Also on record: purified recombinant human Aggrecanase-2 Agg2-Phe628 (MW=41,737); This is a truncated form of full-length human aggrecanase-2; made in house; host or cells: CHO cells. Type of assay: biochemical. The conditions noted are these: for Agg-2 FRET Median PCT INHIB: concentration not given. In short, it runs like this: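 Kinetic fluorescence (λex 340, λem 420 nm) monitored over 40 min at 30 °C after adding 25 μM final Abz/Dnp brevican-based quenched peptide. Enzyme: recombinant truncated human Agg2-Phe628 from CHO, 0.5 μg/ml final, mixed with inhibitor first; buffer HEPES pH 7.5 with NaCl, CaCl2, CHAPS, glycerol; compounds in duplicate.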

[2] abbreviates: read-out: Agg-2 FRET Median IC50.

Structures are written as SMILES. Values joined by “and” are separate entries in the source; they are usually repeats but may differ in a detail not shown here. Equal values may be shown once. Read-outs that look alike come from different tables or passages of the source. Bounds are passed on as bounds.

One may read the IC50 as the concentration at which inhibition is half-maximal. Regarding `Cc1ccsc1C(NC(=O)Cc1ccccc1)c1cc(Cl)c2cccnc2c1O` (centres unmarked) [N-[(5-chloro-8-hydroxyquinolin-7-yl)(3-methyl-2-thienyl)methyl]-2-phenylacetamide], the inhibition at 20 µM at Agg-1 (@ 20000 nM, read-out: Agg1 %) is 52%. The IC50 in assay [1] (read-out: Agg2 IC50) and in assay [1] (setting [2]) was 2540 nM each time.
With `O=C(CNCc1ccncc1)NC(c1ccccc1)c1cc(Cl)c2cccnc2c1O` (centres unmarked) [Example 229, N[(5-chloro-8-hydroxyquinolin-7-yl)(phenyl)methyl]-N2-(pyridin-4-ylmethyl)glycinamide], the IC50 is more than 67000 nM on Agg-1 (read-out: Agg1 IC50) and more than 11000 nM in assay [1] (read-out: Agg2 IC50). In assay [1], the “Agg-2 FRET Median PCT INHIB” value is 29%.
Consider `O=C(COc1ccccc1)N[C@@H](c1ccccc1Cl)c1cc(Cl)c2cccnc2c1O` [N-[(R)-(5-chloro-8-hydroxyquinolin-7-yl)(2-chlorophenyl)methyl]-2-phenoxyacetamide], for which, at Agg-1 (read-out: Agg1 %), the inhibition at 22.2 µM was found to be 49%. The IC50 in assay [1] (read-out: Agg2 IC50) was 970 nM; in assay [1] (setting [2]) it was 970 nM and 1220 nM.
As to `O=C(COc1ccccc1)NC(c1cc(Cl)c2cccnc2c1O)c1ccnc2ccccc12` (centres unmarked) [N-[(5-chloro-8-hydroxyquinolin-7-yl)(quinolin-4-yl)methyl]-2-phenoxyacetamide], the inhibition at 11 µM at Agg-1 (@ 11000 nM, read-out: Agg1 %) amounted to 34%. The inhibition at 2.8 µM in assay [1] (@ 2800 nM) was found to be 45%.
As for `O=C(COc1ccccc1)NC(c1ccc2c(c1)OCCO2)c1cc(Cl)c2cccnc2c1O` (centres unmarked) [N-[(5-chloro-8-hydroxyquinolin-7-yl)(2,3-dihydro-1,4-benzodioxin-6-yl)methyl]-2-phenoxyacetamide], at Agg-1 (read-out: Agg1 %), the inhibition at 7.4 µM was determined as 51%. Also, the IC50 in assay [1] (read-out: Agg2 IC50) was 850 nM.
Consider `O=C(NC(c1ccccc1)c1cc(Cl)c2cccnc2c1O)OCc1ccccc1` (centres unmarked) [benzyl [(5-chloro-8-hydroxyquinolin-7-yl)(phenyl)methyl]carbamate], for which the values for the concentration for half-maximal inhibition (IC50) (on Agg-1 (read-out: Agg1 IC50); in assay [1] (read-out: Agg2 IC50)) were more than 100000 nM and more than 67000 nM, respectively. Moreover, in assay [1], the “Agg-2 FRET Median PCT INHIB” value worked out at 46%.
As to `COc1ccc2cc(C(NC(=O)COc3ccccc3)c3cc(Cl)c4cccnc4c3O)ccc2c1` (centres unmarked) [Example 165, N-[(5-chloro-8-hydroxyquinolin-7-yl)(6-methoxy-2-naphthyl)methyl]-2-phenoxyacetamide], the inhibition at 22.2 µM at Agg-1 (read-out: Agg1 %) stood at 50%. In addition, the 50% inhibitory concentration (IC50) in assay [1] (read-out: Agg2 IC50) is 2300 nM.
Turning to `O=C(COc1ccccc1)NC(c1ccccc1N1CCOCC1)c1cc(Cl)c2cccnc2c1O` (centres unmarked) [N-[(5-chloro-8-hydroxyquinolin-7-yl)(2-morpholin-4-ylphenyl)methyl]-2-phenoxyacetamide], at Agg-1 (read-out: Agg1 %), the inhibition at 22 µM stood at 59%. In addition, in assay [1] (@ 1200 nM), the inhibition at […] was found to be 43%.
For the molecule `O=C(COc1ccccc1)NC(c1cc(Cl)c2cccnc2c1O)c1cccc2cc[nH]c12` (centres unmarked) [N-[(5-chloro-8-hydroxyquinolin-7-yl)(1H-indol-7-yl)methyl]-2-phenoxyacetamide], the inhibition at 7.4 µM on Agg-1 (read-out: Agg1 %) stood at 48%. In assay [1] (@ 1900 nM), the inhibition at […] was found to be 69%.
Regarding `CC(C)(Oc1ccc(Cl)cc1)C(=O)NC(Cc1cc(Cl)c2cccnc2c1O)c1cccc(CN2CCCC2)c1` (centres unmarked), the inhibition at 66.7 µM at Agg-1 (% inhibition @ 66.7 μM, read-out: Agg-1 IC50 (μM) or % Inhibition) was 50%. The inhibition at 22 µM in assay [1] (read-out: Agg-2 IC50 (μM) or % Inhibition) worked out at 49%.
Regarding `O=C(COc1ccc(C2CCCC2)cc1)NC(c1ccccc1Cl)c1cc(Cl)c2cccnc2c1O` (centres unmarked) [N-[(5-chloro-8-hydroxyquinolin-7-yl)(2-chlorophenyl)methyl]-2-(4-cyclopentylphenoxy)acetamide], the IC50 on Agg-1 (read-out: Agg1 IC50) was more than 20000 nM; in assay [1] (read-out: Agg2 IC50), 2400 nM.
For the molecule `O=C(COc1ccccc1)NC(c1cc(Cl)c2cccnc2c1O)c1cccc2cccnc12` (centres unmarked) [N-[(5-chloro-8-hydroxyquinolin-7-yl)(quinolin-8-yl)methyl]-2-phenoxyacetamide], on Agg-1 (read-out: Agg1 %), the inhibition at 22 µM was determined as 55%. Moreover, the IC50 in assay [1] (read-out: Agg2 IC50) amounted to 2200 nM.
Turning to `O=C(COc1ccccc1)NC(c1ccccc1)c1ccc2cccc(O)c2n1` (centres unmarked) [Example 276, N-[(8-hydroxyquinolin-2-yl)(phenyl)methyl]-2-phenoxyacetamide], on Agg-1 (read-out: FRET IC50 Agg-1), the IC50 stood at 15000 nM. In addition, in assay [1] (@ 200 (μM), read-out: Agg-2 FRET % (printed in FRET IC50 column)), the inhibition at 200 µM worked out at 32%.
Take `CC(C)c1ccc(OCC(=O)NC(c2ccccc2Cl)c2cc(Cl)c3cccnc3c2O)cc1` (centres unmarked) [N-[(5-chloro-8-hydroxyquinolin-7-yl)(2-chlorophenyl)methyl]-2-(4-isopropylphenoxy)acetamide]: on Agg-1 (@ 50000 nM, read-out: Agg1 %), the inhibition at 50 µM came out at 56%. Besides, the IC50 in assay [1] (read-out: Agg2 IC50) is 1400 nM.
With `O=C(COc1ccccc1)NC(c1ccccc1[N+](=O)[O-])c1cc(Cl)c2cccnc2c1O` (centres unmarked) [N-[(5-chloro-8-hydroxyquinolin-7-yl)(2-nitrophenyl)methyl]-2-phenoxyacetamide], the inhibition at 7.4 µM at Agg-1 (read-out: Agg1 %) amounted to 48%. Besides, the inhibition at […] in assay [1] (@ 1200 nM) came out at 58%. In assay [1] (setting [2]), the IC50 was 1210 nM.
Regarding `CN(C)CC(=O)Nc1cccc(C(NC(=O)COc2ccccc2)c2cc(Cl)c3cccnc3c2O)c1` (centres unmarked) [Example 206, N-(3-{(5-chloro-8-hydroxyquinolin-7-yl)[(phenoxyacetyl)amino]methyl}phenyl)-N2,N2-dimethylglycinamide], the concentration for half-maximal inhibition (IC50) was 22000 to 67000 nM on Agg-1 (read-out: Agg1 IC50) and 2900 nM in assay [1] (read-out: Agg2 IC50).
As to `O=C(NC(c1ccco1)c1cc(Cl)c2cccnc2c1O)OCc1ccccc1` (centres unmarked) [benzyl [(5-chloro-8-hydroxyquinolin-7-yl)(2-furyl)methyl]carbamate], the IC50 (on Agg-1 (read-out: Agg1 IC50); in assay [1] (read-out: Agg2 IC50)) was more than 20000 nM throughout. For the same molecule, in assay [1], the “Agg-2 FRET Median PCT INHIB” value stood at 33%.
Turning to `O=C(COc1ccccc1)NC(c1ccccc1)c1cc(-n2cccc2)c2cccnc2c1O` (centres unmarked) [N-[[8-hydroxy-5-(1H-pyrrol-1-yl)quinolin-7-yl](phenyl)methyl]-2-phenoxyacetamide], the inhibition at 200 µM at Agg-1 (@ 200000 nM, read-out: Agg1 %) was 54%. The IC50 in assay [1] (read-out: Agg2 IC50) and in assay [1] (setting [2]) was 1640 nM in each case.
In the case of `O=C(NC(c1ccccc1Cl)c1cc(Cl)c2cccnc2c1O)OCc1ccccc1` (centres unmarked) [benzyl [(5-chloro-8-hydroxyquinolin-7-yl)(2-chlorophenyl)methyl]carbamate], the half-inhibitory concentration (IC50) on Agg-1 (read-out: Agg1 IC50) is more than 67000 nM; in assay [1] (read-out: Agg2 IC50) it was approximately 2500 nM. The “Agg-2 FRET Median PCT INHIB” value in assay [1] stood at 56%.
Turning to `CCc1cccc(OCC(=O)NC(c2ccccc2Cl)c2cc(Cl)c3cccnc3c2O)c1` (centres unmarked) [N-[(5-chloro-8-hydroxyquinolin-7-yl)(2-chlorophenyl)methyl]-2-(3-ethylphenoxy)acetamide], the inhibition at 10 µM at Agg-1 (@ 10000 nM, read-out: Agg1 %) is 48%. In assay [1] (read-out: Agg2 IC50), the IC50 amounted to 1280 nM.
`O=C(COc1ccc(-c2ccccc2)cc1)NC(c1ccccc1Cl)c1cc(Cl)c2cccnc2c1O` (centres unmarked) [2-(biphenyl-4-yloxy)-N-[(5-chloro-8-hydroxyquinolin-7-yl)(2-chlorophenyl)methyl]acetamide]: the IC50 on Agg-1 (read-out: Agg1 IC50) is 66000 to 200000 nM; in assay [1] (read-out: Agg2 IC50) it was 3300 nM.
With `COc1cc(OC)cc(OCC(=O)NC(c2ccccc2Cl)c2cc(Cl)c3cccnc3c2O)c1` (centres unmarked) [N-[(5-chloro-8-hydroxyquinolin-7-yl)(2-chlorophenyl)methyl]-2-(3,5-dimethoxyphenoxy)acetamide], the values for the IC50 (on Agg-1 (read-out: Agg1 IC50); in assay [1] (read-out: Agg2 IC50)) were approximately 22000 nM and 1000 nM, respectively.
Regarding `COc1cc(OCC(=O)NC(c2ccccc2)c2cc(Cl)c3cccnc3c2O)cc(OC)c1OC` (centres unmarked) [N-[(5-chloro-8-hydroxyquinolin-7-yl)(phenyl)methyl]-2-(3,4,5-trimethoxyphenoxy)acetamide], the inhibition at 7.5 µM at Agg-1 (@ 7500 nM, read-out: Agg1 %) amounted to 54%. For the same molecule, in assay [1] (read-out: Agg2 IC50), the IC50 worked out at 1800 nM.
Take `CC1(C)CCc2cc(C(NC(=O)COc3ccccc3)c3cc(Cl)c4cccnc4c3O)ccc2O1` (centres unmarked) [Example 171, N-[(5-chloro-8-hydroxyquinolin-7-yl)(2,2-dimethyl-3,4-dihydro-2H-chromen-6-yl)methyl]-2-phenoxyacetamide]: the inhibition at 66.7 µM on Agg-1 (@ 66700 nM, read-out: Agg1 %) came out at 55%. Also, the IC50 in assay [1] (read-out: Agg2 IC50) is 1400 nM.
